The results in this text go back to US12018045B2, “17-beta-hydroxywithanolides and use thereof in treating cancer” (The United States of America, as represented by the …, priority 2018, dated 2024).

Experiment [1] concerns LNCaP prostate cancer cells. In words: Growth inhibition of LNCaP prostate cancer cells. The note with it: Homo sapiens. The experiment is classed as cell-based. The protocol:
(§1) LNCaP and 22Rv1 prostate cancer cells and human fibroblasts HFF cells were treated with compounds 1, 2, 3, and 4.

Experiment [2] has as its system 888, 1383, and Baldwin renal melanoma cells. The experiment in a line: Sensitization of 888, 1383 and Baldwin melanoma cells to TRAIL apoptosis. The experiment is classed as cell-based, human. Conditions: 888, 1383, Baldwin melanoma cells; compared to Birinapant or ABT-737. The protocol:
888, 1383, and Baldwin renal melanoma cells were treated with compound 1 of compound 3, the Birinapant, or ABT-737 in the presence and absence of TRAIL.

Experiment [3] relates to 22Rv1 prostate cancer cells. In words: Growth inhibition of 22Rv1 prostate cancer cells. The experiment is classed as cell-based. The note with it: Homo sapiens. On the procedure:
as §1

The subject of experiment [4] is ACHN, SN12C, Caki-2, TK-10, and UO-31 renal carcinoma cells. In words: Sensitization of renal carcinoma cell lines to TRAIL apoptosis, comparison with IAP and Bcl-2 antagonists. The experiment is classed as cell-based, human. The note with it: 5 renal carcinomas; compared to Birinapant, GDC-0152, LCL-161, ABT-199 and ABT-737. The protocol:
ACHN, S[…], Caki-2, TK-10, and UO-31 cells were treated with compound 1, the IAP antagonists Birinapant, GDC-0152, or LCL-161 and the Bcl-2 antagonists ABT-199 and ABT-737 in the presence and absence of TRAIL.

Experiment [5] has as its system human fibroblasts HFF cells. In words: Growth inhibition of human fibroblasts HFF cells. The experiment is classed as cell-based. The protocol: as §1
Experiment [6] concerns cFLIP. In words: cFLIP levels in 22Rv1 prostate cancer cells (Western blot). The experiment is classed as cell-based. The note with it: 22Rv1 cells; 125 nM, 250 nM, or 500 nM. On the procedure: 22Rv1 prostate cancer cells were treated with 125 nM, 250 nM, or 500 nM of compounds 1 or 3.
In general terms: In western blotting, separated proteins are transferred to a membrane and probed.

Experiment [7] deals with cFLIP. In words: cFLIP levels in LNCaP prostate cancer cells (Western blot). The experiment is classed as cell-based. Conditions: 125 nM, 250 nM, or 500 nM. On the procedure: LNCaP prostate cancer cells were treated with 125 nM, 250 nM, or 500 nM of compounds 1 or 3.
Experiment [8] relates to SK-MEL-28 melanoma cells. The experiment in a line: Killing of SK-MEL-28 melanoma cells by activated human T cells (crystal violet). The experiment is classed as cell-based. The note with it: PCC 500 nM 24 h before T cells. The protocol:
6 well costar plates were precoated with anti-CD3 (1 ug/ml) in PBS overnight at 4° C. Wells were washed with PBS then blocked with RPMI+10% FBS for 30 min before adding anti-CD28 (0.2 ug/ml) and purified T cells.
T cells were isolated from human PBMCs using Pan T cell isolation kit (Miltenyi Biotech) as per manufacturers protocol, added to the costar plates and incubated at 37° C. 24 hours later activated T cells were used as effectors.
SK-MEL-28 cells (200,000) were added to costar 6 plates. After 24 h PCC (500 nM) or control DMSO was added, followed 24 h later by addition of activated T cells at different target to effector ratios. After a further 24 hours plates were washed and adherent melanoma cells were fixed with methanol and stained with crystal violet.
SK-MEL-28 melanoma cells were treated with media, compound 1, or compound 1+α-TNFα and then incubated with the activated human T cells.

Experiment [9] has as its system cFLIP. In words: cFLIP reduction in M14 melanoma cells (Western blotting). The experiment is classed as cell-based, human. Conditions: 0-500 nM, 24 h, compared with compound 1. The protocol:
M14 human melanoma cells were treated with 0, 31.25, 62.5, 125, 250, or 500 nM of compounds 1 and 3. After 24 h, Western blotting was performed to separate cFLIPL, cFLIPS, and GAPDH.

Experiment [10] concerns cFLIP. The experiment in a line: cFLIP reduction in ACHN cells (Western blotting). The note with it: ACHN renal carcinoma cells; 125, 250, 500 nM; 24 h; compared with compound 1. The experiment is classed as cell-based, human. On the procedure: This example the effect of compounds 1 and 3 on the reduction of cFLIP in ACHN human carcinoma cells as a function of concentration after 24 exposure to the compounds.
ACHN human renal carcinoma cells were treated with 125 nM, 250 nM, and 500 nM of compounds 1 and 3. After 24 h exposure to the compounds, Western blotting was performed to separate FLIPL and FLIPS, and the results shown in FIG. 3.

Experiment [11] relates to B16F10 melanoma. In words: B16F10 melanoma xenograft model in C57B/6 mice. The note with it: intra-tumor twice a week for 3 weeks; versus vehicle and compound 1. The experiment is classed as in vivo. The protocol: C57B/6 mice were injected with 5×10^5 B16F10 melanoma cells s.c. Tumors were allowed to grow 8-10 days and then vehicle, compound 1, or compound 3 were injected intra-tumor twice a week for 3 weeks. Tumor growth was monitored until endpoint.

Broadly, the IC50 is the concentration that gives 50% inhibition. Higher therefore signals lower potency.

For the molecule `CC(=O)OC[C@]12CC[C@H]3[C@@H](C[C@H]4O[C@]45CC=CC(=O)[C@]35C)[C@]1(O)CC[C@@]2(O)[C@@](C)(O)[C@H]1CC(C)=C(C)C(=O)O1` [Compound 1, Physachenolide C], the 50% inhibitory concentration (IC50) in experiment [1] is 37 ± 2 nM; in experiment [3], 48 ± 2 nM; in experiment [5] it was greater than 2000 nM. For the same molecule, the “sensitization of TRAIL apoptosis” value in experiment [2] and in experiment [4] was “superior results” throughout. The cFLIP levels result in experiment [6] and in [7] was “reduction of cFLIP levels” throughout. In addition, in experiment [8], the “killing of human melanoma cells by activated T cells” value is reported as “enhanced the killing”.
In the case of `COc1ccc(C(=O)OC[C@]23CC[C@H]4[C@@H](C[C@H]5O[C@]56CC=CC(=O)[C@]46C)[C@]2(O)CC[C@@]3(O)[C@@](C)(O)[C@H]2CC(C)=C(C)C(=O)O2)cc1` [Compound 2], the results for the half-maximal inhibitory concentration (IC50) in experiment [1], in experiment [3] and in experiment [5] were 18 ± 2 nM, 16 ± 4 nM and 938 ± 10 nM, respectively.
Consider `CC1=C(C)C(=O)O[C@@H]([C@](C)(O)[C@]2(O)CC[C@@]3(O)[C@@H]4C[C@H]5O[C@]56CC=CC(=O)[C@]6(C)[C@H]4CC[C@]23COC(=O)c2ccc(C)o2)C1` [Compound 3, withaperuvin E], for which the figures for the half-inhibitory concentration (IC50) in experiment [1], in [3] and in [5] were 14 ± 1 nM, 10 ± 2 nM and 892 ± 119 nM, respectively. Besides, in experiment [2], the “sensitization of TRAIL apoptosis” value is given as “superior results”. Moreover, the cFLIP reduction result in [9] and in experiment [10] was “elevated activity over compound 1” throughout. Further, the tumor volume result in experiment [11] is “lowest”. In addition, the cFLIP levels entry in [6] and in experiment [7] was “reduction of cFLIP levels” throughout.
Consider `CC1=C(C)C(=O)O[C@@H]([C@](C)(O)[C@]2(O)CC[C@@]3(O)[C@@H]4C[C@H]5O[C@]56CC=CC(=O)[C@]6(C)[C@H]4CC[C@]23COC(=O)c2ccc(C)nc2)C1` [Compound 4], for which the IC50 in experiment [1] came to 17 ± 8 nM; in [3], 17 ± 1 nM; in experiment [5] it was 945 ± 92 nM.
